Experimental data published in patent US8633185B2 (priority 2005, dated 2014).

Tests used:
[1] = tested on: K562 human chronic myeloid leukaemia cells; test: K562 cell line MTT assay, 96 hour exposure; assay type: cell-based; conditions: 96 hour incubation
Method: In a modification of the above method, 5×10^4 K562 cells (as above) were maintained in RPMI 1640 medium (Sigma) supplemented with 10% foetal calf serum (Sigma) and 20 mM L-glutamine (Sigma) and 190 μL of this solution incubated with specific doses of the drug (10 μL) for 96 hours at 37° C. in 5% CO2. 250 μg/ml (final) MTT was added to each well and the plates incubated for a further 4 hours. Absorbance was read at 450 nm using an Envision plate reader (Applied Biosystems). Data was then analysed by Graphpad PRISM, and an IC50 obtained (defined as the compound concentration needed to reduce the cell population by half).

Solubility in water = assay type: physicochemical; conditions: saturated solution in water
Method: Solubility was determined by dissolving the test compound in the minimum amount of water to produce a saturated solution.

[2] = tested on: LOX IMVI (human melanomas); test: Anti tumour activity, LOX IMVI xenograft in nude mice; assay type: in vivo
Method: LOX IMVI (human melanomas) were grown subcutaneously in nude mice (B&K Universal, Hull, UK). Tumours were transplanted as single tumour fragments in the flank by trocar. Groups of 8 tumour-bearing mice were treated with ZC423 at the previously established single intravenous (iv) maximum tolerated dose (MTD) of 3 mgkg^−1 using 5% DMA/saline as the vehicle. Control mice (n=8) were treated with vehicle alone.
Treatment commenced when tumours could be reliably measured by calipers (mean dimensions 4×4 mm) and therapeutic effects were assessed by daily caliper measurements of the tumour and mouse weights. Tumour volumes were determined by the formula a^2×b/2 where a is the smaller and b is the larger diameter of the tumour. The results are shown in FIG. 1 as a graphs of relative tumour volume against time (▪ ZC423; ♦ Control—solvent alone).

[3] = tested on: LOXIMVI human melanoma cells; test: LOXIMVI cell line cytotoxicity (resazurin); assay type: cell-based; conditions: 96 hours, read-out: ZC-423 IC50
Method: (§1) LOXIMVI and OVCAR-5 Cell Lines
(§2) A cell solution containing 5×10^4 cells/ml of either LOXIMVI human melanoma cells or OVCAR-5 human ovarian tumour cells was made up in phenol red free RPMI 1640 (Sigma) supplemented with 10% foetal calf serum (Sigma) and 20 mM L-glutamine (Sigma). 190 μl cell solution was added to each well of a fluorescence compatible polystyrene 96 well cell culture plate (Greiner BioOne), from columns 2 to 11. 190 μl culture media was added to columns 1 and 12. Plates were incubated overnight at 37° C. in 5% CO2. Compounds were dissolved in 100% Biotech grade DMSO (Sigma) and subsequently diluted to stock concentrations in 2% DMSO. 100 μl of the stock concentrations were serially diluted 1 in 3 in 2% DMSO in intermediate polystyrene 96 well cell culture plates (Nunc). 2% DMSO was placed in the outer columns for use as blanks, and in the 2nd or 11th column (depending on whether the top or bottom of an assay plate was to be used) for use as a control. The entire row of the intermediate plate was then transferred in triplicate, 10 μl per well, to either rows B to D or E to G of the cell plate. […] Fluorescence was read at 530-570 nm excitation, 580-620 nm emission using an Envision plate reader (Applied Biosystems). Data was then analysed by Graphpad PRISM, and an IC50 obtained (defined as the compound concentration needed to reduce the cell population by half).

[4] = tested on: OVCAR-5 human ovarian tumour cells; test: OVCAR-5 cell line cytotoxicity (resazurin); assay type: cell-based; conditions: 96 hours, read-out: ZC-423 IC50
Method: as §1, §2

[5] = Single intravenous maximum tolerated dose; assay type: in vivo, mice; conditions: previously established
[6] = tested on: Closed-circular puc18 DNA linearized with HindIII; test: DNA cross-linking (agarose gel); assay type: biochemical; conditions: amount required to cross-link 50% of the DNA (XL50), 37° C., pH 7.2
Method: Closed-circular puc18 DNA was linearized with HindIII, then dephosphorylated, and finally 5′ end labeled with [y32P]-ATP using polynucleotide kinase. Reactions containing 10 ng of DNA and drug were carried out in aqueous 1×TEOA (25 mM triethanolamine, 1 mM EDTA, pH 7.2) buffer at a final volume of 50 μL at 37° C. Reactions were terminated by addition of an equal volume of stop solution (0.6 M NaOAc, 20 mM EDTA, 100 μg/mL tRNA) followed by precipitation with ethanol. Following centrifugation of the samples, the supernatants were discarded and the pellets were dried by lyophilization. […]
Electrophoresis was performed on a 0.8% submerged horizontal agarose gel, 20 cm in length for 16 hours at 38-40 V in 1×TAE running buffer (2.42 g Tris Base, 0.372 g EDTA, 0.571 ml glacial acetic acid). […] The film bands were quantitated using a BioRad GS-670 imaging laser densitometer. The percentage of cross-linking was calculated by measuring the total DNA in each lane (the sum of the densities for the double-stranded and single-stranded bands) relative to the amount of density of double-stranded band alone. A dose response curve was derived by plotting drug concentration against the determined percentage level of cross-linked DNA, from which was derived the amount required to cross-link 50% of the DNA (XL50).

K562 cells = test: K562 cell line Alamar Blue assay; assay type: cell-based, human; conditions: 96 hours
Method: K562 Cell Line (Alamar Blue Assay)
The compounds to be tested were dissolved in 100% Biotech grade DMSO (Sigma) and subsequently diluted to stock concentrations of either 2 μM or 200 nM in 2% DMSO. 100 μl of the stock concentrations were serially diluted 1 in 3 in 2% DMSO in intermediate polystyrene 96 well cell culture plates (Nunc). 2% DMSO was placed in the outer columns for use as blanks, and in the 2nd or 11th column (depending on whether the top or bottom of an assay plate was to be used) for use as a control. The entire row of the intermediate plate was then transferred in triplicate to either rows B to D or E to G of a fluorescence compatible polystyrene 96 well cell culture plate (Greiner BioOne); 10 μl to each well. A cell solution containing 5×10^4 cells/ml was made up in phenol red free RPMI 1640 (Sigma) supplemented with 10% foetal calf serum (Sigma) and 20 mM L-glutamine (Sigma). 190 μl cell solution was added to each well of the assay plate, from columns 2 to 11. 190 μl culture media was added to columns 1 and 12. Plates were incubated for 96 hours at 37° C. in 5% CO2. 1 μM (final) rezasurin (converted to fluorescent resofurin by viable cells) was added to each well and the plates incubated for a further 4 hours. Fluorescence was read at 530-570 nm excitation, 580-620 nm emission using an Envision plate reader (Applied Biosystems). Data was then analysed by Graphpad PRISM, and an IC50 obtained (defined as the compound concentration needed to reduce the cell population by half).

[7] = tested on: K562 human chronic myeloid leukaemia cells; test: K562 cell line MTT assay, 1 hour exposure; assay type: cell-based; conditions: 1 hour incubation
Method: K562 Cell Line (MTT Assay)
K562 human chronic myeloid leukaemia cells were maintained in RPM1 1640 medium supplemented with 10% fetal calf serum and 2 mM glutamine at 37° C. in a humidified atmosphere containing 5% CO2 and were incubated with a specified dose of drug for 1 hour at 37° C. in the dark. The incubation was terminated by centrifugation (5 min, 300 g) and the cells were washed once with drug-free medium. Following the appropriate drug treatment, the cells were transferred to 96-well microtiter plates (10^4 cells per well, 8 wells per sample). Plates were then kept in the dark at 37° C. in a humidified atmosphere containing 5% CO2. The assay is based on the ability of viable cells to reduce a yellow soluble tetrazolium salt, 3-(4,5-dimethylthiazol-2-yl)-2,5-diphenyl-2H-tetrazolium bromide (MTT, Aldrich-Sigma), to an insoluble purple formazan precipitate. Following incubation of the plates for 4 days (to allow control cells to increase in number by approximately 10 fold), 20 μL of MTT solution (5 mg/mL in phosphate-buffered saline) was added to each well and the plates further incubated for 5 h. The plates were then centrifuged for 5 min at 300 g and the bulk of the medium pipetted from the cell pellet leaving 10-20 μL per well. […] The optical density was then read at a wavelength of 550 nm on a Titertek Multiscan ELISA plate reader, and a dose-response curve was constructed. […]

1,1′[[(Propane-1,5-diyl)dioxy]bis[(11aS)-11-sulpho-7-methoxy-2-(4-methoxyphenyl)-1,10,11,11a-tetrahydro-5H-pyrrolo[2,1-c][1,4]benzodiazepin-5-one]] sodium salt [ZC-423]
IC50 [1]: 1.5 nM
Amount of compound (g) in 1 L water (Solubility in water): 11 g in 1 L water
activity (relative tumour volume vs control), Mann-Whitney analysis ([2]; single iv 3 mgkg^−1, FIG. 1): statistically significant
tumour free animals ([2]; single iv 3 mgkg^−1, at 68 days, FIG. 2): all animals were tumour free
IC50 [3]: 4.83 nM
IC50 [4]: 5.2 nM
single intravenous (iv) maximum tolerated dose (MTD) [5]: 3 mgkg^−1

COc1cc2c(cc1OCCCOc1cc3c(cc1OC)C(=O)N1C=C(c4ccc5ccccc5c4)C[C@H]1C=N3)N=C[C@@H]1CC(c3ccc4ccccc4c3)=CN1C2=O [Compound 18]
IC50 [6]: 200 nM

COc1cc2c(cc1OCCCOc1cc3c(cc1OC)C(=O)N1C=C(c4cccs4)C[C@H]1C=N3)N=C[C@@H]1CC(c3cccs3)=CN1C2=O [Compound 21]
IC50 [6]: 500 nM

COc1cccc(C2=CN3C(=O)c4cc(OC)c(OCCCOc5cc6c(cc5OC)C(=O)N5C=C(c7cccc(OC)c7)C[C@H]5C=N6)cc4N=C[C@@H]3C2)c1 [Compound 26, 1,1′-[[(Propane-1,3-diyl)dioxy]bis[(11aS)-7-methoxy-2-(3-methoxybenzene)-1,11a-dihydro-5H-pyrrolo[2,1-c][1,4]benzodiazepine-5-one]]]
IC50 (K562 cells; Homo sapiens): < 1 nM

COc1cccc(C2=CN3C(=O)c4cc(OC)c(OCCCOc5cc6c(cc5OC)C(=O)N5C=C(c7cccc(OC)c7)C[C@H]5C(S(=O)(=O)[O-])N6)cc4NC(S(=O)(=O)[O-])[C@@H]3C2)c1.[Na+].[Na+] (stereo partly drawn) [Compound 27, 1,1′-[[(Propane-1,3-diyl)dioxy]bis[(11aS)-11-sulpho-7-methoxy-2-(3-methoxybenzene)-1, 10,11,11a-tetrahydro-5H-pyrrolo[2,1-c][1,4]benzodiazepin-5-one]] sodium salt]
IC50 (K562 cells): < 1 nM
Amount of compound (g) in 1 L water (Solubility in water): 9 g in 1 L water

COc1cc2c(cc1OCCCOc1cc3c(cc1OC)C(=O)N1C=C(c4ccc5c(c4)OCO5)C[C@H]1C=N3)N=C[C@@H]1CC(c3ccc4c(c3)OCO4)=CN1C2=O [Compound 29]
IC50 (K562 cells; Homo sapiens): < 1 nM

COc1cc2c(cc1OCCCOc1cc3c(cc1OC)C(=O)N1C=C(c4ccc(F)cc4)C[C@H]1C=N3)N=C[C@@H]1CC(c3ccc(F)cc3)=CN1C2=O [Compound 32, 1,1′-[[(Propane-1,3-diyl)dioxy]bis[(11aS)-7-methoxy-2-(4-fluorobenzene)-1,11a-dihydro-5H-pyrrolo[2,1-c][1,4]benzodiazepine-5-one]]]
IC50 (K562 cells; Homo sapiens): < 1 nM

COc1cc2c(cc1OCCCOc1cc3c(cc1OC)C(=O)N1C=C(c4ccc(F)cc4)C[C@H]1C(S(=O)(=O)[O-])N3)NC(S(=O)(=O)[O-])[C@@H]1CC(c3ccc(F)cc3)=CN1C2=O.[Na+].[Na+] (stereo partly drawn) [Compound 33, 1,1′-[[(Propane-1,3-diyl)dioxy]bis[(11aS)-11-sulpho-7-methoxy-2-(4-fluorobenzene)-1, 10,11,11a-tetrahydro-5H-pyrrolo[2,1-c][1,4]benzodiazepin-5-one]] sodium salt]
IC50 (K562 cells): < 1 nM
Amount of compound (g) in 1 L water (Solubility in water): 3 g in 1 L water

COc1ccc(C2=CN3C(=O)c4cc(OC)c(OCCCOc5cc6c(cc5OC)C(=O)N5C=C(c7ccc(OC)cc7)C[C@H]5C=N6)cc4N=C[C@@H]3C2)cc1 [ZC-207, 1,1′-[[(Propane-1,3-diyl)dioxy]bis[(11aS)-7-methoxy-2-(p-methoxybenzene)-1,11a-dihydro-5H-pyrrolo[2,1-c][1,4]benzodiazepine-5-one]]]
Amount of compound (g) in 1 L water (Solubility in water): Insoluble
IC50 [7]: 5.3 nM
